Read-outs that look alike come from different tables or passages of the source.
How the values were obtained:
[1] = 14-day repeated dermal dose toxicity study; parameters: species or system Beagle dogs; details: beagle, dog, in vivo, topical or ocular; 14-day dermal
[2] = tested on: Subjects with Mild to Moderate Osteoarthritis of the Knee; assay: Phase 2 study: safety; type: in vivo, human
From the text: Safety assessments will be performed at each visit and will include assessment of AEs, vital signs (blood pressure, pulse rate, and oral temperature), clinical laboratories, physical examination, skin irritation, and electrocardiograms (ECGs) as indicated in the study flow chart, Table 14.
Safety assessments will include AEs, vital signs (blood pressures, pulse rate, and oral temperature), clinical laboratories, physical examination, skin irritation, and ECGs at various time points during the study as indicated in the study flow chart.
Adverse events of interest include: local skin reactions around the treated knee(s), upper stomach pain, GI bleeding, serious cardiovascular side effects (e.g., thrombotic events, myocardial infarction, or stroke), jaundice, elevated liver function tests, and nausea.
Safety analyses will be conducted on the SAS. Safety parameters will be listed and summarized using standard descriptive statistics, as appropriate. No formal statistical analyses are planned.

[3] = tested on: Osteoarthritis Induced by Transection of the Anterior Cruciate Ligament (ACL); assay: Osteoarthritis induced by transection of the anterior cruciate ligament (I), treatment 4-10 weeks post-surgery; type: in vivo, SD Rats; details: transdermal; did not reach statistical significance
[4] = Acute maximum tolerated dose study, subcutaneous injection; parameters: species or system Beagle dogs; details: beagle, dog, in vivo, sc
[5] = Phase 1 clinical study: plasma pharmacokinetics of prodrug and ibuprofen; type: in vivo, human; details: steady-state, 70 mg
[6] = tested on: Mild to Moderate Osteoarthritis of the Knee; assay: Phase 2 study: physician's global assessment of disease status; type: in vivo, human
From the text: (§1) 3.9.3. Exploratory Efficacy Endpoints: • 1. Subject's global assessment of disease status of the target knee at 2, 4, 8, and 12 weeks of treatment; • 2. Investigator's global assessment of disease status of the target knee at 2, 4, 8, and 12 weeks of treatment; • 3. Subject's global assessment of response to therapy of the target knee at 2, 4, 8, and 12 weeks of treatment; • 4. Investigator's global assessment of response to therapy of the target knee at 2, 4, 8, and 12 weeks of treatment; • 5. Change from Baseline over time in VAS pain scores for the target knee from Daily Diary data; • 6. Amount of rescue medication (acetaminophen) consumed per day for target knee pain.
(§2) Data for the exploratory efficacy endpoints will be summarized using descriptive statistics.

[7] = tested on: Mild to Moderate Osteoarthritis of the Knee; assay: Phase 2 study: subject's and physician's global assessment of response to therapy; type: in vivo, human
From the text: as §1, §2

[8] = 28-day GLP repeated dermal dose toxicity and toxicokinetics study; parameters: species or system Rats; details: rat, in vivo; for Cmax / AUC(0-t): topical, 100 mg/kg/day, Day 28; for AUC(0-t): read-out: AUC0-24 h
[9] = In vitro half-life with animal skin; type: in vitro ADME; details: read-out: in vitro T1/2 (converted)
[10] = 28-day GLP repeated dermal dose toxicity and toxicokinetics study; parameters: species or system Beagle dogs; details: beagle, dog, in vivo, topical or ocular, 28-day dermal

For CCN(CC)CCOC(=O)C(C)c1ccc(CC(C)C)cc1 (centres unmarked) [2-(diethylamino)ethyl 2-(4-isobutylphenyl)propionate], the NOAEL at 14 days [1] was 50 mg/kg/day, the safety and tolerability ([2]; all three doses (8.75, 17.5, 35 mg/knee BID)) was “appeared to be safe and were generally well tolerated” and the “gastrointestinal disorder incidences (very mild)” value ([2]; whole study) was 12 incidences. For the same molecule, the skin irritation incidences ([2]; whole study, total) was 8 incidences, the “severity of osteoarthritic degeneration (histopathology)” value [3] was “showed recognizable reduction in the severity of osteOArthritic” and the MTD [4] was 500 mg/kg. The “relative bioavailability of spray vs topical application (plasma ibuprofen)” value [5] was “comparable at steady-state”, the “Physician's Global Assessment of Disease Status: Improved (percentage of patients who improved by 2 grades or more from baseline, or from 1 to 0)” value ([6]; 8.75 mg/knee (BID)) was 10.5% and the “Physician's Global Assessment of Disease Status: Worsened (percentage of patients who worsened by 2 grades or more from baseline, or from 3 to 4)” value ([6]; 8.75 mg/knee (BID)) was 1.8%. The “patients improved by 2 grades or more from baseline (physician's global assessment)” value ([6]; 8.75 mg/knee (BID)) was 10.5%, the “Physician's Global Assessment of Disease Status: Improved (percentage of patients who improved by 2 grades or more from baseline, or from 1 to 0)” value ([6]; 17.5 mg/knee (BID)) was 35.6% and the “Physician's Global Assessment of Disease Status: Worsened (percentage of patients who worsened by 2 grades or more from baseline, or from 3 to 4)” value ([6]; 17.5 mg/knee (BID)) was 1.7%. For the same molecule, the “Physician's Global Assessment of Disease Status: Improved (percentage of patients who improved by 2 grades or more from baseline, or from 1 to 0)” value ([6]; 35 mg/knee (BID)) was 30.9%, the “Physician's Global Assessment of Disease Status: Worsened (percentage of patients who worsened by 2 grades or more from baseline, or from 3 to 4)” value ([6]; 35 mg/knee (BID)) was 0% and the “Physician's global assessment of response to therapy: Excellent” value ([7]; 8.75 mg/knee (BID)) was 11.1%. For the same molecule, the “Physician's global assessment of response to therapy: fair” value (shortened to “Physician's global assessment … fair”) ([7]; 8.75 mg/knee (BID)) was 36.5%, the “Physician's global assessment of response to therapy: good” value ([7]; 8.75 mg/knee (BID)) was 38.1% and the “Physician's global assessment of response to therapy: none” value (from here on “Physician's global assessment … none”) ([7]; 8.75 mg/knee (BID)) was 7.9%. For the same molecule, the “Physician's global assessment of response to therapy: poor” value (“Physician's global assessment … poor” for short) ([7]; 8.75 mg/knee (BID)) was 6.3%, the “Physician's global assessment of response to therapy: total percentage of excellent and good” value ([7]; 8.75 mg/knee (BID)) was 49.2% and the “Subject's global assessment of response to therapy: Excellent” value ([7]; 8.75 mg/knee (BID)) was 7.8%. The “Subject's global assessment of response to therapy: fair” value (“Subject's global assessment … fair” for short) ([7]; 8.75 mg/knee (BID)) was 29.7%, the “Subject's global assessment of response to therapy: good” value ([7]; 8.75 mg/knee (BID)) was 43.8% and the “Subject's global assessment of response to therapy: none” value (shortened to “Subject's global assessment … none”) ([7]; 8.75 mg/knee (BID)) was 9.4%. For the same molecule, the “Subject's global assessment of response to therapy: poor” value (“Subject's global assessment … poor” below) ([7]; 8.75 mg/knee (BID)) was 9.4%, the “Subject's global assessment of response to therapy: total percentage of excellent and good” value ([7]; 8.75 mg/knee (BID)) was 51.6% and the “Physician's global assessment of response to therapy: Excellent” value ([7]; 17.5 mg/knee (BID)) was 23.2%. The “Physician's global assessment … fair” value ([7]; 17.5 mg/knee (BID)) was 18.8%, the “Physician's global assessment of response to therapy: good” value ([7]; 17.5 mg/knee (BID)) was 43.5% and the “Physician's global assessment … none” value ([7]; 17.5 mg/knee (BID)) was 5.8%. For the same molecule, the “Physician's global assessment … poor” value ([7]; 17.5 mg/knee (BID)) was 8.7%, the “Physician's global assessment of response to therapy: total percentage of excellent and good” value ([7]; 17.5 mg/knee (BID)) was 66.7% and the “Subject's global assessment of response to therapy: Excellent” value ([7]; 17.5 mg/knee (BID)) was 20.3%. The “Subject's global assessment … fair” value ([7]; 17.5 mg/knee (BID)) was 17.2%, the “Subject's global assessment of response to therapy: good” value ([7]; 17.5 mg/knee (BID)) was 50.0% and the “Subject's global assessment … none” value ([7]; 17.5 mg/knee (BID)) was 7.8%. The “Subject's global assessment … poor” value ([7]; 17.5 mg/knee (BID)) was 4.7%, the “Subject's global assessment of response to therapy: total percentage of excellent and good” value ([7]; 17.5 mg/knee (BID)) was 70.3% and the “Physician's global assessment of response to therapy: Excellent” value ([7]; 35 mg/knee (BID)) was 18.8%. For the same molecule, the “Physician's global assessment … fair” value ([7]; 35 mg/knee (BID)) was 17.2%, the “Physician's global assessment of response to therapy: good” value ([7]; 35 mg/knee (BID)) was 42.2% and the “Physician's global assessment … none” value ([7]; 35 mg/knee (BID)) was 7.8%. The “Physician's global assessment … poor” value ([7]; 35 mg/knee (BID)) was 14.1%, the “Physician's global assessment of response to therapy: total percentage of excellent and good” value ([7]; 35 mg/knee (BID)) was 60.9% and the “Subject's global assessment of response to therapy: Excellent” value ([7]; 35 mg/knee (BID)) was 18.0%. The “Subject's global assessment … fair” value ([7]; 35 mg/knee (BID)) was 18.3%, the “Subject's global assessment of response to therapy: good” value ([7]; 35 mg/knee (BID)) was 49.2% and the “Subject's global assessment … none” value ([7]; 35 mg/knee (BID)) was 9.8%. The “Subject's global assessment … poor” value ([7]; 35 mg/knee (BID)) was 4.9%, the “Subject's global assessment of response to therapy: total percentage of excellent and good” value ([7]; 35 mg/knee (BID)) was 67.2% and the NOAEL at 28 days ([8]; both sexes, topical or ocular, 28-day dermal, male and female, read-out: systemic NOAEL) was 100 mg/kg/day. The Cmax ([8]; female, females) was 46.8 µg/mL, the AUC(0-t) ([8]; female, females) was 422 µg·h/mL and the Cmax ([8]; male, males) was 47.4 µg/mL. It also gave an AUC(0-t) ([8]; male, males) of 165 µg·h/mL, an NOAEL at 28 days ([8]; ulcers at application site at ≥100 mg/kg/day, read-out: local NOAEL) of 25 mg/kg/day and a half-life [9] of about 20 h. It also gave an NOAEL at 28 days ([10]; read-out: NOAEL (not attained; ulcers at application site at lowest dose)) of under 12.4 mg/kg/day and an NOAEL at 28 days ([10]; read-out: systemic NOAEL (tissues other than the dermal application site)) of 24.8 mg/kg/day.

— patent publication US20240024273A1, “TOPICAL ADMINISTRATION OF 2-(DIETHYLAMINO)ETHYL 2-(4-ISOBUTYLPHENYL)PROPRIONATE FOR TREATMENT OF DISEASES” (TECHFIELDS PHARMA CO., LTD., priority 2020, published 2024)
